The source of these data is US10392368B2, “Pyrazolo and triazolo bicyclic compounds as JAK kinase inhibitors” (THERAVANCE BIOPHARMA R&D IP, LLC, priority 2017, dated 2019).

This experiment deals with IL-2 stimulated pSTAT5 in PBMC CD4+ T cells. Briefly: Inhibition of IL-2 stimulated pSTAT5 in human PBMC CD4+ T cells. Type of experiment: cell-based. The following applies: flow cytometry. As to the method: The potency of test compounds for inhibition of interleukin-2 (IL-2) stimulated STAT5 phosphorylation was measured in human peripheral blood mononuclear cell (PBMC) CD4+ T cells using flow cytometry. Because IL-2 signals through JAK3, this assay provides a measure of JAK3 cellular potency in human primary cells.
Phosphorylated STAT5 was measured via flow cytometry by measuring pSTAT5 response in CD4+ T cells (Becton Disckinson, AlexaFluor 647 Mouse anti-Human STAT5 (pY694) and PE Mouse anti-Human CD4).
Human PBMCs were isolated from donors via Ficoll gradient and frozen at −80° C. Frozen PBMCs were thawed and cultured for one hour in a 37° C., 5% CO2 humidified incubator in RPMI (Life Technologies) supplemented with 10% Heat Inactivated Fetal Bovine Serum (FBS, Life Technologies), 2 mM Glutamax (Life Technologies), 25 mM HEPES (Life Technologies) and 1× Pen/Strep (Life Technologies). Cells were seeded into 2 ml deep well plates at 4e6 cells/ml (50 μl/well). […]
To determine the inhibitory potency of test compounds in response to IL-2, the median fluorescence intensity of pSTAT5 in CD4+ gated cells was measured in human PBMCs with a BD LSRII with analysis in FCS Express 6. IC50 values were determined from analysis of the inhibition curves of signal intensity vs compound concentration. Data are expressed as pIC50 (negative decadic logarithm IC50) values (mean±standard deviation).

With `CN(C)C/C=C/C(=O)N1CCC(C)(Oc2cc(-c3ccc(O)cc3)cc3[nH]ncc23)CC1` [Compound 9, (E)-4-(dimethylamino)-1-(4-((6-(4-hydroxyphenyl)-1H-indazol-4-yl)oxy)-4-methylpiperidin-1-yl)but-2-en-1-one], the “pIC50, inhibition of IL-2 stimulated pSTAT5, compared with assay 2” value was “values very similar to the ones obtained in assay 2”. Then `CN(C)C/C=C/C(=O)N1CC(C#N)(COc2cc(-c3ccc(O)c(F)c3)cc3[nH]ncc23)C1` [Compound 8, (E)-1-(4-(dimethylamino)but-2-enoyl)-3-(((6-(3-fluoro-4-hydroxyphenyl)-1Hindazol-4-yl)oxy)methyl)azetidine-3-carbonitrile], with “values very similar to the ones obtained in assay 2”.
